Measured values reported in PMC11915801, “Evolutionary trajectory of bacterial resistance to antibiotics and antimicrobial peptides in Escherichia coli” (mSystems, 2025).
≈ marks a conversion by molar mass, not a printed value. Like-named read-outs stand apart in the source and are kept apart here. Where a SMILES comes first, the peptide text is derived from it.

Columns and labels:
Assay in all cases: microbe, parasite or virus in culture
Format in all cases: cell-based, Escherichia coli
[1] = test system: E. coli K-12 MG1655; details: for MIC: Escherichia coli
Experimental: (§1) The broth microdilution method was used to measure the MIC values of antibiotics and peptides according to the Clinical and Laboratory Standards Institute guidelines. The MIC value is defined as the lowest drug concentration without visible bacteria.
Eight antibiotics and ten AMPs at the sub-inhibitory concentration were prepared. A 300-µL system, including 260 µL of MH broth, 30 µL of prepared drug, and 10 µL of bacterial culture, was used for resistance passages. After 12 h of incubation at 37℃ and 200 rpm, 10 µL of the above bacterial culture was added into the new sterile drug-containing broth. MIC values of bacterial culture were determined. The drug concentration was adjusted according to the MIC value change until the end of the 120 passages.

[2] = test system: AMP120 (evolved MG1655); details: broth microdilution, ampicillin-evolved strain; for MIC: Escherichia coli, MG1655
Text: (§2) To ensure the stable resistance evolution and inheritance of MG1655 under different drugs, we randomly selected three monoclonals from the evolved strains. The final antibiotic-evolved strains were designated as AMP120, AZI120, CHL80, CIP120, DOX120, KAN80, NIT70, and TMP30, while the final AMP-evolved strains were named COL120, Ind120, Omi120, Pex120, PGLA120, Pleu120, R8120, SAAP120, LI120, and SLAP120.
as §1

[3] = test system: AZI120 (evolved MG1655); details: broth microdilution, azithromycin-evolved strain; for MIC: Escherichia coli, MG1655
Text: as §2, §1

[4] = test system: CHL80 (evolved MG1655); details: broth microdilution, chloramphenicol-evolved strain; for MIC: Escherichia coli, MG1655
Text: as §2, §1

[5] = test system: CIP120 (evolved MG1655); details: broth microdilution, ciprofloxacin-evolved strain; for MIC: Escherichia coli
Text: as §2, §1

[6] = test system: COL120 (evolved MG1655); details: for MIC: Escherichia coli, MG1655
Text: as §2, §1

[7] = test system: DOX120 (evolved MG1655); details: broth microdilution, doxycycline-evolved strain; for MIC: Escherichia coli, MG1655
Text: as §2, §1

[8] = test system: KAN80 (evolved MG1655); details: for MIC: Escherichia coli, MG1655
Text: as §2, §1

[9] = test system: NIT70 (evolved MG1655); details: broth microdilution, nitrofurantoin-evolved strain; for MIC: Escherichia coli, MG1655
Text: as §2, §1

[10] = test system: TMP30 (evolved MG1655); details: broth microdilution, trimethoprim-evolved strain; for MIC: Escherichia coli, MG1655
Text: as §2, §1

[11] = MG1655, 12 h, read-out: MIC of MG1655 under the pressure of the same drug, generation 10
[12] = MG1655, read-out: MIC of MG1655 under the pressure of the same drug, generation primary
[13] = MG1655, as E2, generation 20, read-out: MIC of MG1655 under the pressure of the same drug, generation 20
[14] = MG1655, as E2, generation 30, read-out: MIC of MG1655 under the pressure of the same drug, generation 30
[15] = MG1655, as E2, generation 40, read-out: MIC of MG1655 under the pressure of the same drug, generation 40
[16] = MG1655, as E2, generation 50, read-out: MIC of MG1655 under the pressure of the same drug, generation 50
[17] = MG1655, as E2, generation 60, read-out: MIC of MG1655 under the pressure of the same drug, generation 60
[18] = MG1655, as E2, generation 70, read-out: MIC of MG1655 under the pressure of the same drug, generation 70
[19] = MG1655, as E2, generation 80, read-out: MIC of MG1655 under the pressure of the same drug, generation 80
[20] = broth microdilution, colistin-evolved strain
[21] = broth microdilution, kanamycin-evolved strain

`O=C(N[C@H](CO)[C@H](O)c1ccc([N+](=O)[O-])cc1)C(Cl)Cl` [CHL, Chloramphenicol] showed an MIC [1, 11] of 8 µg/mL, an MIC [1, 12] of 8 µg/mL and an MIC [1, 13] of 16 µg/mL. It also gave an MIC [1, 14] of 32 µg/mL, an MIC [1, 15] of 64 µg/mL and an MIC [1, 16] of 128 µg/mL. For the same compound, the MIC [1, 17] was 256 µg/mL, the MIC [1, 18] was 256 µg/mL and the MIC [1, 19] was 512 µg/mL. The MIC [2] was 16 µg/mL (≈ 49.5 µM), the MIC [3] was 8 µg/mL (≈ 24.8 µM) and the MIC [4] was 512 µg/mL (≈ 1580 µM). It also gave an MIC [5] of 32 µg/mL (≈ 99 µM), an MIC [6, 20] of 8 µg/mL (≈ 24.8 µM) and an MIC [7] of 64 µg/mL (≈ 198 µM). The MIC [8, 21] was 2 µg/mL (≈ 6.19 µM), the “collateral sensitivity of KAN80 (fold change of MIC vs wild-type MG1655)” value ([8]; MIC of KAN80 compared with MG1655) was “exceeding fourfold” and the MIC [9] was 8 µg/mL (≈ 24.8 µM). For the same compound, the MIC [10] was 8 µg/mL (≈ 24.8 µM).

In the case of `CC(C)C[C@H](NC(=O)[C@H](CCCCN)NC(=O)[C@H](Cc1ccccc1)NC(=O)[C@@H](NC(=O)[C@H](CCCCN)NC(=O)CNC(=O)[C@H](CC(C)C)NC(=O)[C@@H](N)Cc1ccccc1)C(C)C)C(=O)N[C@@H](C)C(=O)N[C@@H](CO)C(=O)N[C@@H](CCCCN)C(=O)N[C@H](C(=O)N[C@@H](Cc1ccccc1)C(=O)N[C@@H](CCCCN)C(=O)N[C@@H](C)C(=O)N[C@H](C(=O)N[C@@H](Cc1ccccc1)C(=O)NCC(=O)N[C@@H](CCCCN)C(=O)N[C@H](C(=O)O)C(C)C)C(C)C)C(C)C` [R8] (H-FLGKVFKLASKVFKAVFGKV-OH), the “MIC of MG1655 under the pressure of the same drug, generation 20” value ([1]; as E2, generation 20) is reported as 4 µg/mL, the “MIC of MG1655 under the pressure of the same drug, generation 30” value ([1]; as E2, generation 30) is reported as 4 µg/mL and the “MIC of MG1655 under the pressure of the same drug, generation 40” value ([1]; as E2, generation 40) is reported as 4 µg/mL. The “MIC of MG1655 under the pressure of the same drug, generation 50” value ([1]; as E2, generation 50) was 4 µg/mL, the “MIC of MG1655 under the pressure of the same drug, generation 60” value ([1]; as E2, generation 60) was 4 µg/mL and the “MIC of MG1655 under the pressure of the same drug, generation 70” value ([1]; as E2, generation 70) was 4 µg/mL. The “MIC of MG1655 under the pressure of the same drug, generation 80” value ([1]; as E2, generation 80) was 4 µg/mL, the “MIC of MG1655 under the pressure of the same drug, generation 90” value ([1]; as E2, generation 90) was 4 µg/mL and the “MIC of MG1655 under the pressure of the same drug, generation 100” value ([1]; as E2, generation 100) was 4 µg/mL. The “MIC of MG1655 under the pressure of the same drug, generation 110” value ([1]; as E2, generation 110) was 8 µg/mL, the “MIC of MG1655 under the pressure of the same drug, generation 120” value ([1]; as E2, generation 120) was 8 µg/mL and the “MIC of MG1655 under the pressure of the same drug, generation primary” value ([1]; broth microdilution (CLSI), primary MG1655 before passage) was 4 µg/mL. For the same compound, the “MIC of MG1655 under the pressure of the same drug, generation 10” value ([1]; broth microdilution, line passaged in MH broth with sub-inhibitory drug, 12 h per passage, 37℃, generation 10) was 4 µg/mL, the “MIC values of evolved MG1655, strain AMP120” value [2] was 4 µg/mL and the “MIC values of evolved MG1655, strain AZI120” value [3] was 8 µg/mL. The “MIC values of evolved MG1655, strain CHL80” value [4] was 8 µg/mL, the “MIC values of evolved MG1655, strain CIP120” value [5] was 8 µg/mL and the “MIC values of evolved MG1655, strain COL120” value [6, 20] was 4 µg/mL. The “MIC values of evolved MG1655, strain DOX120” value [7] was 8 µg/mL, the “MIC values of evolved MG1655, strain KAN80” value [8, 21] was 4 µg/mL and the “MIC values of evolved MG1655, strain NIT70” value [9] was 8 µg/mL. The “MIC values of evolved MG1655, strain TMP30” value [10] was 8 µg/mL.

Work on `CC[C@H]1OC(=O)[C@H](C)[C@@H](O[C@H]2C[C@@](C)(OC)[C@@H](O)[C@H](C)O2)[C@H](C)[C@@H](O[C@@H]2O[C@H](C)C[C@H](N(C)C)[C@H]2O)[C@](C)(O)C[C@@H](C)CN(C)[C@H](C)[C@@H](O)[C@]1(C)O` [AZI, Azithromycin] yielded an MIC [1, 11] of 2 µg/mL, an MIC [1, 12] of 2 µg/mL and an MIC [1, 13] of 2 µg/mL. For the same compound, the MIC [1, 14] was 2 µg/mL, the MIC [1, 15] was 2 µg/mL and the MIC [1, 16] was 4 µg/mL. The MIC [1, 17] was 4 µg/mL, the MIC [1, 18] was 4 µg/mL and the MIC [1, 19] was 4 µg/mL. The MIC ([1]; MG1655, as E2, generation 90, read-out: MIC of MG1655 under the pressure of the same drug, generation 90) was 4 µg/mL, the MIC ([1]; MG1655, as E2, generation 100, read-out: MIC of MG1655 under the pressure of the same drug, generation 100) was 4 µg/mL and the MIC ([1]; MG1655, as E2, generation 110, read-out: MIC of MG1655 under the pressure of the same drug, generation 110) was 8 µg/mL. It also gave an MIC ([1]; MG1655, as E2, generation 120, read-out: MIC of MG1655 under the pressure of the same drug, generation 120) of 16 µg/mL, an MIC [2] of 1 µg/mL (≈ 1.34 µM) and an MIC [3] of 16 µg/mL (≈ 21.4 µM). The MIC [4] was 2 µg/mL (≈ 2.67 µM), the MIC [5] was 4 µg/mL (≈ 5.34 µM) and the MIC [6, 20] was 0.5 µg/mL (≈ 0.668 µM). The “collateral sensitivity of COL120 (fold change of MIC vs wild-type MG1655)” value ([6]; MIC of COL120 compared with MG1655) was “exceeding fourfold”, the MIC [7] was 2 µg/mL (≈ 2.67 µM) and the MIC [8, 21] was 2 µg/mL (≈ 2.67 µM). The MIC [9] was 4 µg/mL (≈ 5.34 µM) and the MIC [10] was 16 µg/mL (≈ 21.4 µM).
